The target in one series is human FGF-R1 (Homo sapiens, UniProt P11362, C488A/C584S/L457V). In words: FGF-R spectrophotometric assay. The series is classed as biochemical. To be noted: Table 1; compound concentration 1 µM; read-out: FGF-P* (% inhibition). Here is the method: The spectrophotometric assay was carried out as described above for VEGF-R2, except for the following changes in concentration: FGF-R = 50 nM, ATP = 2 mM, and poly(E4Y1) =15 mM.

A short description of the next series: in vitro. To be noted: 2 h. The series is classed as in vitro ADME, human. In a few lines:
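HLM diluted to 5 mg/mL in 100 mM KPO4, preincubated 10 min at 37 °C with NADPH-regenerating system. Compound (5 µM final) incubated at 37 °C in triplicate, sampled at 0 and 2 h into ice-cold acetonitrile, then LC-MS analysis.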

Series [1] has as its system VEGF dependent retinal vascular development. Briefly: In vivo assay of retinal vascular development in neonatal rats. The arrangement: species or system rat. To be noted: Model P8, intravitreal, 5 mg/ml. Here is the method: The development of the retinal vascular in rats occurs from postnatal day 1 to postnatal day 14 (P1-P14). […] To assess the ability of specific compounds to inhibit the activity of VEGF in vivo, compounds were formulated in an appropriate vehicle, usually 50% polyethylene glycol, average molecular weight 400 daltons, and 50% solution of 300 mM sucrose in deionized water. […] Six days after the intravitreal injection, the animals were sacrificed and the retinas dissected free from the remaining ocular tissue. […] The individual retinas are then flat-mount onto glass slides and examined to determine the extent of vascularization. […] The amount of vessel regression was used to assess the relative potency of the compounds after in vivo administration.
For more quantitative analysis of regression, images of ADPase-stained, flat-mounted retinas were captured with a digital camera attached to a dissecting microscope. Retinal images were then imported into an image analysis software (Image Pro Plus 4.0, Media Cybernetics, Silver Spring, MD). The software was employed to determine the percentage of the area of the retina that contained stained vessels. This value for the experimental eye was compared to that measured for the vehicle injected, contralateral eye from the same animal. The reduction in the vascular area seen in the eye that received compound as compared to the vehicle-injected eye was then expressed as the "percent regression" for that sample.

Series [2] concerns human umbilical vein endothelial cells (HUVEC). Briefly: HUVEC proliferation assay (VEGF-stimulated, MTT). The series is classed as cell-based. To be noted: Homo sapiens, HUVEC, Table 1.
The target of the next series is LCK tyrosine kinase (Homo sapiens, UniProt P06239, C224D/P223M). In words: LCK spectrophotometric assay. The note with it: Table 1; compound concentration 1 µM; read-out: Lck-P* (% inhibition). The series is classed as biochemical. Here is the method: The spectrophotometric assay was carried out as described above for VEGF-R2, except for the following changes in concentration: LCK = 60 nM, MgCl2 = 0 mM, poly(E4Y1) = 20 mM.
Sequence of LCK tyrosine kinase (P06239 223-509 P223M/C224D): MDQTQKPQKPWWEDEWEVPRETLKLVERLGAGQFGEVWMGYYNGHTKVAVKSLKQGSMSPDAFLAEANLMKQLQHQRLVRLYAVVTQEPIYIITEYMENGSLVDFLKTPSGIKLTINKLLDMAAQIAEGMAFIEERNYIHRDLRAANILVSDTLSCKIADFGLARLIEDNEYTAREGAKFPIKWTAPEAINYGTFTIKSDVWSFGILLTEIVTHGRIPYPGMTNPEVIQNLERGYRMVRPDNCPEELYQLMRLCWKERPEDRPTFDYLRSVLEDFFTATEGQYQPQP

The target in series [3] is unphosphorylated VEGF-R2Δ50 (Homo sapiens, UniProt P35968, DEL940-989/E990V). In words: biochemical. The note with it: read-out: FLVK ** (% inhibition).
Sequence of unphosphorylated VEGF-R2Δ50 (P35968 with tags, fused parts or gaps DEL940-989/E990V limits assumed): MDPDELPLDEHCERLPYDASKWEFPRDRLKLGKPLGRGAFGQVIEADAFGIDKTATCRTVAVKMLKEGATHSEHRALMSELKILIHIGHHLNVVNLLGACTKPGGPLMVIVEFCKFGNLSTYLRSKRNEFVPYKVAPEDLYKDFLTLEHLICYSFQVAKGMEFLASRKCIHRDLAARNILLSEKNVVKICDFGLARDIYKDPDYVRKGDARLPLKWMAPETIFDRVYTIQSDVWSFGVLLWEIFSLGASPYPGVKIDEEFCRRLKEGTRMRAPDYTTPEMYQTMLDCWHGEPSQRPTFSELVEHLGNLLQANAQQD
The nature of another series: in vivo. The note with it: mouse, plasma, pH 2.3.
For series [4] the following is noted: for AUCleast: mouse, in vivo, pH 2.3.
[5] abbreviates: human liver microsomes, 5 µM test compound, 37 °C.
The mark [6] stands for this setting: + albumin, read-out: HUVEC + albumin IC50.
Where [7] appears, read: PO, 50 mg/kg, vehicle PEG400:H2O pH 2.3 60:40.
[8] abbreviates: PO, 50 mg/kg, vehicle PEG400:H2O pH 2.3 30:70.

Where two headings read alike, the source gives them in different places.

The values below come from EP1614683B1, “Indazole compounds and pharmaceutical compositions for inhibiting protein kinases, and methods for their use” (priority 1999, dated 2001).

In general, inhibition refers to the drop in the measured response relative to a control, in per cent. As a reminder, the % Inhibition is the change of the read-out against control, counted positive when it falls. By IC50 is commonly meant the concentration that inhibits the measured activity by half. What is called AUC is the area under the concentration-time curve, a measure of exposure.

Sequence of human FGF-R1 (P11362 456-766 L457V/C488A/C584S): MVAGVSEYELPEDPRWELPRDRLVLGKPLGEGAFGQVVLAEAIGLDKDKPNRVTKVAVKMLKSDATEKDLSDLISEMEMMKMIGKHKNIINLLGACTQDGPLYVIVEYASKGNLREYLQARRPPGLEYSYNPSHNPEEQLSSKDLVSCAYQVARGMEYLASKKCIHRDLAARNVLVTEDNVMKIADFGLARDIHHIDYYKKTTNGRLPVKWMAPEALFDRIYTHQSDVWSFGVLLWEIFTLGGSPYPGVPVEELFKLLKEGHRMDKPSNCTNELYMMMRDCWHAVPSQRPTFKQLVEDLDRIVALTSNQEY

In the case of `CCCNC(=O)c1ccccc1Sc1ccc2c(/C=C/c3ccccn3)n[nH]c2c1` [Reference Example 35(a), 6-[2-(n-Propylcarbamoyl)phenylsulfanyl]-3-E-[2-(pyridin-2-yl)ethenyl]-1H-indazole], the inhibition at 1 µM amounted to 59% on human FGF-R1 and 12% on LCK tyrosine kinase. Also, the “% remain (HLM, 2 h)” value in “in vitro” (setting [5]) stood at 33%. The “% Inhibition” value in series [1] (vehicle PEG/water 50:50) was 4%. The IC50 in series [2] (setting [6]) stood at 0.0021 µM. Moreover, the inhibition at 0.05 µM in series [3] worked out at 76%.
As to `CC(=O)c1ccc(C(=O)Nc2cccc(C(=O)c3ccc4c(/C=C/c5ccccn5)n[nH]c4c3)c2)s1` [41 (e)], the “% Inhibition” value in series [1] (vehicle PEG/water 50:50) turned out to be 8%. Besides, the AUC stood at 4900 ng·h/mL in the series “in vivo” (ip, 25 mg/kg) and 302 ng·h/mL in “in vivo” (po, 50 mg/kg). The T1/2 was 1.6 h in series [4] (IP, 25 mg/kg, vehicle PEG400:H2O pH 2.3 60:40) and 1.6 h in series [4] (setting [7]). In series [4] (setting [7]), the “Cmin (7 hr conc.)” value is 7 ng/mL.
Turning to `CS(=O)(=O)c1ccc(C(=O)Nc2cccc(Oc3ccc4c(/C=C/c5ccccn5)n[nH]c4c3)c2)s1` [Reference Example 31(c), 6-[3-((5-methylsulfonylthien-2-yl)carboxamido)phenoxy]-3-E-[2-(pyridin-2-yl)ethenyl]-1H-indazole], the inhibition at 1 µM at human FGF-R1 was found to be 98%; at LCK tyrosine kinase, 81%. In addition, the “% remain (HLM, 2 h)” value in “in vitro” (setting [5]) is 87%. Moreover, the “Initial Evaluation” value in series [1] (vehicle PEG/water 50:50) is reported as “+/++ var”. Besides, in series [2] (setting [6]), the IC50 was 0.0114 µM.
In the case of `CC1CC1C(=O)Nc1cccc(C(=O)c2ccc3c(/C=C/c4ccccn4)n[nH]c3c2)c1` (stereo not shown) [41 (h)], in series [1] (vehicle PEG/water 70:30), the “% Inhibition” value was 0%. The AUC turned out to be 26900 ng·h/mL in “in vivo” (ip, 25 mg/kg) and 4680 ng·h/mL in “in vivo” (po, 50 mg/kg). Besides, the T1/2 in series [4] (IP, 25 mg/kg, vehicle PEG400:H2O pH 2.3 30:70) came out at 1.2 h; in series [4] (setting [8]), 0.7 h. In series [4] (setting [8]), the “Cmin (7 hr conc.)” value turned out to be 7 ng/mL.
As to `Cc1cc(C(=O)Nc2cc(C(=O)c3ccc4c(/C=C/c5ccccn5)n[nH]c4c3)c(C)cc2C)n(C)n1` [Reference Example 41(mm), 6-[2,4-dimethyl-5-((1,3-dimethyl-1H-Pyrazol-5-yl)carboxamido)benzoyl]-3-E-[2-(pyridin-2-yl)ethenyl]-1H-indazole], the “Initial Evaluation” value in series [1] (vehicle PEG/water 50:50) is on record as “+ (one plus being detectable regression judged to be approximately 25 percent or less)”.
Regarding `O=C(c1cccc(NC(=O)C2CC2)c1)c1ccc2c(/C=C/c3ccccn3)n[nH]c2c1` [Reference Example 41(k), 6-[3-(cyclopropylcarboxamido)benzoyl]-3-E-[2-(pyridin-2-yl)ethenyl]-1H-indazole], the inhibition at 1 µM on human FGF-R1 was found to be 49%; on LCK tyrosine kinase it was 20%. In addition, the “% Inhibition” value in series [1] (vehicle PEG/water 50:50) stood at 1%. For the same compound, the IC50 in series [2] (setting [6]) is 0.048 µM.
Take `Cc1cc(C(=O)Nc2cc(Nc3ccc4c(/C=C/c5ccccn5)n[nH]c4c3)ccc2F)n(C)n1` [Example 49(a), 6-[N-(3-((1,3-Dimethyl-1H-pyrazol-5-yl)carboxamido)-4-fluorophenyl)amino]-3-E-[2-(pyridin-2-yl)ethenyl]-1H-indazole]: in series [1] (vehicle PEG/water 50:50), the “% Inhibition” value came to 54%.
As for `O=C(NCC1CC1)c1ccccc1Sc1ccc2c(/C=C/c3ccccn3)n[nH]c2c1` [Reference Example 35(v), 6-[2-(Cyclopropylmethyl-carbamoyl)phenylsulfanyl]-3-E-[2-(pyridin-2-yl)ethenyl]-1H-indazole], the inhibition at 1 µM at human FGF-R1 is 59%; on LCK tyrosine kinase, 11%. Besides, the “% remain (HLM, 2 h)” value in “in vitro” (setting [5]) stood at 26%. Also, the “% Inhibition” value in series [1] (vehicle PEG/water 50:50) was 20%. The IC50 in series [2] (setting [6]) stood at 0.022 µM. In series [3], the inhibition at 0.05 µM stood at 72%.
Consider `Cc1cc(C(=O)Nc2cccc(C(=O)c3ccc4c(/C=C/c5ccccn5)n[nH]c4c3)c2)n[nH]1` [Reference Example 41(g), 6-[3-((5-methyl-1H-pyrazol-3-yl)carboxamido)benzoyl]-3-E-[2-(pyridin-2-yl)ethenyl]-1H-indazole], for which the inhibition at 1 µM at human FGF-R1 amounted to 95%; on LCK tyrosine kinase it was 36%. For the same compound, the “% remain (HLM, 2 h)” value in “in vitro” (setting [5]) came to 52%. Further, the “% Inhibition” value in series [1] (vehicle PEG/water 50:50) was 37%. Besides, the IC50 in series [2] (setting [6]) was over 0.01 µM; in series [2] (read-out: HUVEC IC50), 0.0009 µM.
With `Cc1nc(/C=C/c2n[nH]c3cc(C(=O)c4cccc(NC(=O)c5ccccc5)c4)ccc23)cs1` [Example 42(c)], the “% Inhibition” value in series [1] (vehicle PEG/water 50:50) was found to be 36%.
As to `Cn1nc(C(C)(C)C)cc1C(=O)Nc1cccc(C(=O)c2ccc3c(/C=C/c4ccccn4)n[nH]c3c2)c1` [Reference Example 41(n), 6-[3-((3-t-butyl-1-methyl-1H-pyrazol-5-yl)carboxamido)benzoyl]-3-E-[2-(pyridin-2-yl)ethenyl]-1H-indazole], the inhibition at 1 µM at human FGF-R1 worked out at 87%; at LCK tyrosine kinase it was 66%. Besides, the “% remain (HLM, 2 h)” value in the series “in vitro” (setting [5]) came out at 70%. Besides, the “% Inhibition” value in series [1] (vehicle PEG/water 50:50) is 2%.
For the compound `O=C(NC1CCC1)c1ccccc1Sc1ccc2c(/C=C/c3ccccn3)n[nH]c2c1` [Reference Example 35(c), 6-[2-(Cyclobutylcarbamoyl)phenylsulfanyl]-3-E-[2-(pyridin-2-yl)ethenyl]-1H-indazole], the results for the inhibition at 1 µM at human FGF-R1 and on LCK tyrosine kinase were 42% and 11%, respectively. Also, the “% remain (HLM, 2 h)” value in “in vitro” (setting [5]) was determined as 17%. For the same compound, the “% Inhibition” value in series [1] (vehicle PEG/water 50:50) came out at 0%. The IC50 in series [2] (setting [6]) amounted to 0.0063 µM. Also, the inhibition at 0.05 µM in series [3] came to 76%.
As for `O=C(c1cccc(NC(=O)c2ccc(Cl)s2)c1)c1ccc2c(/C=C/c3ccccn3)n[nH]c2c1` [41 (o)], in series [1] (vehicle PEG/water 50:50), the “% Inhibition” value is 2%. Further, the AUC in “in vivo” (po, 50 mg/kg) came to 14700 ng·h/mL. In series [4] (setting [8]), this compound returned a T1/2 of 1.7 h.
Consider `CCCn1nc(C)cc1C(=O)Nc1cccc(C(=O)c2ccc3c(/C=C/c4ccccn4)n[nH]c3c2)c1` [41 (r)], for which the “Initial Evaluation” value in series [1] (vehicle PEG/water 50:50) is “+/++ var”. For the same compound, the AUCleast was over 23752 ng·h/mL in series [4] (ip, 25 mg/kg) and over 17789 ng·h/mL in series [4] (po, 50 mg/kg).
Take `O=C(NCC(F)(F)F)c1ccccc1Sc1ccc2c(/C=C/c3ccccn3)n[nH]c2c1` [Reference Example 33(f), 6-[2-(2,2,2-trifluoroethylcarbamoyl)phenylsulfanyl]-3-E-[2-(pyridin-2-yl)ethenyl]-1H-indazole]: the “% remain (HLM, 2 h)” value in “in vitro” (setting [5]) is recorded as 31%. Besides, in series [1] (vehicle PEG/water 50:50), the “% Inhibition” value was 20%. In addition, in series [2] (setting [6]), the IC50 worked out at 0.017 µM.
Take `Cc1cc(C(=O)Nc2cccc(C(=O)c3ccc4c(/C=C/c5ccccn5)n[nH]c4c3)c2)on1` [Reference Example 41(m), 6-[3-((3-methylisoxazol-5-yl)carboxamido)benzoyl]-3-E-[2-(pyridin-2-yl)ethenyl]-1H-indazole]: the inhibition at 1 µM at human FGF-R1 came out at 67%; on LCK tyrosine kinase it was 40%. Besides, the “% remain (HLM, 2 h)” value in “in vitro” (setting [5]) amounted to 0%. The “% Inhibition” value in series [1] (vehicle PEG/water 50:50) came to 10%. Besides, in series [2] (setting [6]), the IC50 turned out to be 0.023 µM.
In the case of `C#CCNC(=O)c1ccccc1Nc1ccc2c(/C=C/c3ccccn3)n[nH]c2c1` [Example 39(b), 6-[2-(Prop-2-ynylcarbamoyl)phenylamino]-3-E-[2-(pyridin-2-yl)ethenyl]-1H-indazole], the “% remain (HLM, 2 h)” value in “in vitro” (human, microsomes, 5 µM) was 67%. In series [1] (vehicle PEG/water 50:50), the “% Inhibition” value is 9%.
On to `Cc1cc(C(=O)Nc2cc(Nc3ccc4c(/C=C/c5ccccn5)n[nH]c4c3)ccc2C)n(C)n1` [Example 49(b), 6-[N-(3-((1,3-Dimethyl-1H-pyrazol-5-yl)carboxamido)-4-methylphenyl)amino]-3-E-[2-(pyridin-2-yl)ethenyl]-1H-indazole], for which the inhibition at 1 µM on human FGF-R1 came to 80%; at LCK tyrosine kinase, 9%. Moreover, in series [1] (vehicle PEG/water 50:50), the “% Inhibition” value was 5%. Besides, the inhibition at 0.05 µM in series [3] stood at 98%.
As to `C=CCONC(=O)c1ccccc1Sc1ccc2c(/C=C/c3ccccn3)n[nH]c2c1` [Reference Example 35(j), 6-[2-(Allyloxycarbamoyl)phenylsulfanyl]-3-E-[2-(pyridin-2-yl)ethenyl]-1H-indazole], the “% Inhibition” value in series [1] (vehicle PEG/water 50:50) was found to be 7%.
